Assay results reported in patent US12275731B2, “Azaindole inhibitors of wild-type and mutant forms of LRRK2” (DANA-FARBER CANCER INSTITUTE, INC., priority 2018, dated 2025).

Experiments:
Experiment in all cases: KinomeScan profiling
Assay type in all cases: binding
ASK1 = target: T1, ASK1 (Homo sapiens, UniProt Q99683); conditions: ASK1, 1 μM; read-out: % control
T1 construct: purchased KinomeScan®
T1 sequence (Q99683 1-1374): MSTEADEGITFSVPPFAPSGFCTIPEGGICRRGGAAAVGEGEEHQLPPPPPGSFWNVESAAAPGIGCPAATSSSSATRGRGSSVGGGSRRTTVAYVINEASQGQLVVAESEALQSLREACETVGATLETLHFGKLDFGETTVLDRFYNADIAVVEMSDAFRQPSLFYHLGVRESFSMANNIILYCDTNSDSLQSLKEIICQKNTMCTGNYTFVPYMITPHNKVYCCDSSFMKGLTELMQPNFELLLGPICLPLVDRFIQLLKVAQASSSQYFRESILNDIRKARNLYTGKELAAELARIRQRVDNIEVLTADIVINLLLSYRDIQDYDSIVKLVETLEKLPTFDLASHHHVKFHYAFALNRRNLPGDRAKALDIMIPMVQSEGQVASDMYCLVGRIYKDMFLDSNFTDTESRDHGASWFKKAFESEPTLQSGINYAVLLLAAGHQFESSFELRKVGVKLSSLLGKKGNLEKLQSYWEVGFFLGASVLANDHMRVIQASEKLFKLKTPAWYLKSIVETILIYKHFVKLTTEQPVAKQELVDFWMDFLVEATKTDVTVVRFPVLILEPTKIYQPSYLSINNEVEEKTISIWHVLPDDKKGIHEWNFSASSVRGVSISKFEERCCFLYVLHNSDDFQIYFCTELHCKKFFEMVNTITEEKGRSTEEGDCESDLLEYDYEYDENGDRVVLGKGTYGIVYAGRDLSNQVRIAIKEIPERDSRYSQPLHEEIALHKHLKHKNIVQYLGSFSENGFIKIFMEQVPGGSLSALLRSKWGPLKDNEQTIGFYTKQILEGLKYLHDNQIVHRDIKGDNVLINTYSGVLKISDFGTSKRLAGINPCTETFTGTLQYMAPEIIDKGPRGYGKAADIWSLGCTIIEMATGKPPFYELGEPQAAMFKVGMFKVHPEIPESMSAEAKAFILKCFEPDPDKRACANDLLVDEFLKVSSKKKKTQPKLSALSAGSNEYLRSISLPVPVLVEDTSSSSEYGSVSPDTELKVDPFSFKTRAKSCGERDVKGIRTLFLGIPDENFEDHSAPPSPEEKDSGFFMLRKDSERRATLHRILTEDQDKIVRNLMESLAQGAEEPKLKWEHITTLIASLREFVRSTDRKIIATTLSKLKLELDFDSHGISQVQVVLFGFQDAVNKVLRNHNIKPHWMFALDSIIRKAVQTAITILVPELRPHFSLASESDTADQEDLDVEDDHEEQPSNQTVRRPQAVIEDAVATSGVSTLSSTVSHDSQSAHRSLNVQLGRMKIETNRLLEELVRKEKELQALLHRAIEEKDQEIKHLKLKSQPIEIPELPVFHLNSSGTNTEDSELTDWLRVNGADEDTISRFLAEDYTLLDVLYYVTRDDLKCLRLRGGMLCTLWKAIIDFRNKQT
Method in brief: (§1)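 1 μM cpd in DMSO; 468-kinase panel; readout RLU. % ctrl = (cpd − pos ctrl)/(neg ctrl − pos ctrl) ×100. Pos ctrl = 0%, DMSO = 100%. Hit cut-off <35%.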

NEK3 = target: T2, NEK3 (Homo sapiens, UniProt P51956); conditions: NEK3, 1 μM; read-out: % control
T2 sequence (P51956 1-506): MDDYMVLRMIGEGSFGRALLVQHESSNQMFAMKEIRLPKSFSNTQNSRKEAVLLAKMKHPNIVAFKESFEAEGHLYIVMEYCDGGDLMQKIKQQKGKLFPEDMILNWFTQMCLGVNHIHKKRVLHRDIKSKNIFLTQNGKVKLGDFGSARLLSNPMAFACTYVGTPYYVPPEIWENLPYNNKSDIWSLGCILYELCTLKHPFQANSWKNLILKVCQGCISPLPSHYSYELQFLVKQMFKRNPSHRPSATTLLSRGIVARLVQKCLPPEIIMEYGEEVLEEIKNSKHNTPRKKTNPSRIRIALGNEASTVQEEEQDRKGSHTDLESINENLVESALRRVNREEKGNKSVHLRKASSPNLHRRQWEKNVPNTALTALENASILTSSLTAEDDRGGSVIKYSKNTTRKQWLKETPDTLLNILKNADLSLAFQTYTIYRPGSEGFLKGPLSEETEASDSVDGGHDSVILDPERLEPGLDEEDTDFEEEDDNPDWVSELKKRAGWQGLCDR
Method in brief: as §1

WNK2 = WNK2 (Homo sapiens, UniProt Q9Y3S1); conditions: WNK2, 1 μM; read-out: % control
Method in brief: as §1

NEK7 = NEK7 (Homo sapiens, UniProt Q8TDX7); conditions: NEK7, 1 μM; read-out: % control
Method in brief: as §1

NIM1 = NIM1 (Homo sapiens, UniProt Q8IY84); conditions: NIM1, 1 μM; read-out: % control
Method in brief: as §1

[1] = target: T3, JAK3(JH1domain-catalytic) (Homo sapiens, UniProt P52333); conditions: read-out: % control
T3 construct: JAK3(JH1domain-catalytic); purchased KinomeScan®
Method in brief: as §1

PHKG2 = target: T4, PHKG2 (Homo sapiens, UniProt P15735); conditions: PHKG2, 1 μM; read-out: % control
T4 sequence (P15735 1-406): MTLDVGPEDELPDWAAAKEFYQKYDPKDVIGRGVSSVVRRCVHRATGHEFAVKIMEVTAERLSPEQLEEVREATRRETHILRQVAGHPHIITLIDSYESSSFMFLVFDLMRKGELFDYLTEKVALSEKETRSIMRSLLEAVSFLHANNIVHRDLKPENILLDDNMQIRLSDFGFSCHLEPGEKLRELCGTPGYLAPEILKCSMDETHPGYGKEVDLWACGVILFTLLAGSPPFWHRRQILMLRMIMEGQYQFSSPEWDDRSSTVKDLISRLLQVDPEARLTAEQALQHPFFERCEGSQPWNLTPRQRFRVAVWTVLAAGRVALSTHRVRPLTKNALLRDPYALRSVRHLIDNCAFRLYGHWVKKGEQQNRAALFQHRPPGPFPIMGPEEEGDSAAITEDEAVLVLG
Method in brief: as §1

PKN2 = PKN2 (Homo sapiens, UniProt Q16513); conditions: PKN2, 1 μM; read-out: % control
Method in brief: as §1

Chain of WNK2 (Q9Y3S1 whole entry): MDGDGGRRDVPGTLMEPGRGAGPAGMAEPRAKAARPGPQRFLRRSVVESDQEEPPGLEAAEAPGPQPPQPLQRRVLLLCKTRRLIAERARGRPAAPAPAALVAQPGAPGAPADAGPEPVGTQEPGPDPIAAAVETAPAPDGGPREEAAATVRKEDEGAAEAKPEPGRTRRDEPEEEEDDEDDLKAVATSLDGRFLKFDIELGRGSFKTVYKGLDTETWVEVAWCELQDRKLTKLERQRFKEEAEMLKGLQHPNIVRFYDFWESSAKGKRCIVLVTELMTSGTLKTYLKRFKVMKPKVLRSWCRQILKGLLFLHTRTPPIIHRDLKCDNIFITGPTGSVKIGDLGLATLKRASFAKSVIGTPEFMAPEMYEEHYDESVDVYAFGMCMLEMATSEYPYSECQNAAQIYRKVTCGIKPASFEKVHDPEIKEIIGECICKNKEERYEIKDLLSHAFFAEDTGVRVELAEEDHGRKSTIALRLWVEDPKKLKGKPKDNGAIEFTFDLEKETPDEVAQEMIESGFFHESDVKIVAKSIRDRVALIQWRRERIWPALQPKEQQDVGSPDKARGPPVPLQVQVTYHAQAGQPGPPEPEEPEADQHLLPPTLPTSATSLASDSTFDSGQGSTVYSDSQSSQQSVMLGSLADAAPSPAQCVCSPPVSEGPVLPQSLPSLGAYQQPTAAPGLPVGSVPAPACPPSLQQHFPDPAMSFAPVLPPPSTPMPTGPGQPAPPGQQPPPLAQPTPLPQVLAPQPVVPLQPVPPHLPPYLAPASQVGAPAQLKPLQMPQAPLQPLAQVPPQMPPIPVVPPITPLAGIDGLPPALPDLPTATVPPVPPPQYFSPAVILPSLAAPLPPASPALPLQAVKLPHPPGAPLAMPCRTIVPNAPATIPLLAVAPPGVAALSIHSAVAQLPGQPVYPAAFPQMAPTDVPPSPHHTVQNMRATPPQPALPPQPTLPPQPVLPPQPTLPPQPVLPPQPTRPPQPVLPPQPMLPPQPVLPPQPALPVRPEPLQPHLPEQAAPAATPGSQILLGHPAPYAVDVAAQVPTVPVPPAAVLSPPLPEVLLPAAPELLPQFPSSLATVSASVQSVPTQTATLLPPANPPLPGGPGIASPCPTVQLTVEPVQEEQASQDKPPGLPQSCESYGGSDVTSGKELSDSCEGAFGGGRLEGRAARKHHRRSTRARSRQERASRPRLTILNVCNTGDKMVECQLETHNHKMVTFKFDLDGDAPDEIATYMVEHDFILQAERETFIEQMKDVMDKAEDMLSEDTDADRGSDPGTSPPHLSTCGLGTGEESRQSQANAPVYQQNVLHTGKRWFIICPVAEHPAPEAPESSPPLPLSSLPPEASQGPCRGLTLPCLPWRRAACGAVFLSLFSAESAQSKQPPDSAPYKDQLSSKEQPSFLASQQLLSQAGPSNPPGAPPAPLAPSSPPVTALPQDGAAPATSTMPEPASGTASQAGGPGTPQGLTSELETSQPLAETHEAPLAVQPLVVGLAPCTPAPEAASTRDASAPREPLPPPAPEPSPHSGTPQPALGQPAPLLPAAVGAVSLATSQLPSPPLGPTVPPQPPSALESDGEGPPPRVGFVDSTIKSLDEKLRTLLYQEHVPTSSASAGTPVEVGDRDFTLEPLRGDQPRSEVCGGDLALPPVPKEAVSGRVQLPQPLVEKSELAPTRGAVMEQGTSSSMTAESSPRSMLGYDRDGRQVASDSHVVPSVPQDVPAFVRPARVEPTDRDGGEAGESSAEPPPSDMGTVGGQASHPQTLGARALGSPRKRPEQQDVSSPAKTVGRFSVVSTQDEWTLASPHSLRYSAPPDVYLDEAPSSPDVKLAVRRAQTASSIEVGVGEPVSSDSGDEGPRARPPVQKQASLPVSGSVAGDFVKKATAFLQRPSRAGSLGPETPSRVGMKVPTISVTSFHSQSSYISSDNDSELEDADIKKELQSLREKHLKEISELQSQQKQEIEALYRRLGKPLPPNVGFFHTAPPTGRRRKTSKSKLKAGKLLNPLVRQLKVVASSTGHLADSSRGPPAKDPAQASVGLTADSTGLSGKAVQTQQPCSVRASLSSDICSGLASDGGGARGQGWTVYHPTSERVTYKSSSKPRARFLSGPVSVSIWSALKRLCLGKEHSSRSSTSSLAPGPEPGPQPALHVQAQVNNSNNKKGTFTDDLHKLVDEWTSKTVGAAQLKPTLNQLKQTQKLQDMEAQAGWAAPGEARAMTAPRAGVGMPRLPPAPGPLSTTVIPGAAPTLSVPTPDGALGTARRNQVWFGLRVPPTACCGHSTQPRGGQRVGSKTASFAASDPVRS
T3 sequence (P52333 822-1111 limits assumed): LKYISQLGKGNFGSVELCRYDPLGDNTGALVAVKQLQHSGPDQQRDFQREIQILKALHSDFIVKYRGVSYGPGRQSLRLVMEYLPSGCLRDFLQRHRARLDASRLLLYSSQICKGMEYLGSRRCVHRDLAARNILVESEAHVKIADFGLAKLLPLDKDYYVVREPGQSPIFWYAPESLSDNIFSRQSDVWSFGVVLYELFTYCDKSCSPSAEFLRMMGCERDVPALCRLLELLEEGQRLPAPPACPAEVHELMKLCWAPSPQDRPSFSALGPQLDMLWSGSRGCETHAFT
Chain of PKN2 (Q16513 whole entry): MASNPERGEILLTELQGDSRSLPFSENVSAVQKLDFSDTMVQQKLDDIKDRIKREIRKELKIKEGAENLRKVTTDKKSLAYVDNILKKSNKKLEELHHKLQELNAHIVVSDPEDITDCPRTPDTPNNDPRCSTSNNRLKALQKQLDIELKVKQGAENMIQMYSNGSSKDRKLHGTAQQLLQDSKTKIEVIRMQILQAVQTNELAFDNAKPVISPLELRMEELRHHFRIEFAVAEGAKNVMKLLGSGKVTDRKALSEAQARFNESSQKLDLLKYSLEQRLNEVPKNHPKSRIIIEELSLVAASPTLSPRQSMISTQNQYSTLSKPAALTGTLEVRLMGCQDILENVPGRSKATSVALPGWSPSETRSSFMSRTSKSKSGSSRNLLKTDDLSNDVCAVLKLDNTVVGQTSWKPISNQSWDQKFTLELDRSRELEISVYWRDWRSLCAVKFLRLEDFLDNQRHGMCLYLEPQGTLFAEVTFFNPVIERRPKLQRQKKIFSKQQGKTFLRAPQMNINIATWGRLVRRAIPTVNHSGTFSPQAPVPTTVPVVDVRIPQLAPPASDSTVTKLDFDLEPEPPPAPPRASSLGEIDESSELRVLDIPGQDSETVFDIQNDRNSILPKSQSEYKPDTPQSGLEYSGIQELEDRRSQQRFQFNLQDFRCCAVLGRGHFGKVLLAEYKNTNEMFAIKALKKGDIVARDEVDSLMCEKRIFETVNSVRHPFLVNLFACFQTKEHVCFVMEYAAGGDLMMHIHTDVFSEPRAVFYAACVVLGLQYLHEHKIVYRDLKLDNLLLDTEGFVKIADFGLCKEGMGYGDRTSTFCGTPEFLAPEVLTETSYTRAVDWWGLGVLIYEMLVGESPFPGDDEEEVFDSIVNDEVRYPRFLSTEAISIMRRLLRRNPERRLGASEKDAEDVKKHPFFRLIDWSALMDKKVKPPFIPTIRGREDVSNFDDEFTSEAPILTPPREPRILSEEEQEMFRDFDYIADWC
Chain of NEK7 (Q8TDX7 whole entry): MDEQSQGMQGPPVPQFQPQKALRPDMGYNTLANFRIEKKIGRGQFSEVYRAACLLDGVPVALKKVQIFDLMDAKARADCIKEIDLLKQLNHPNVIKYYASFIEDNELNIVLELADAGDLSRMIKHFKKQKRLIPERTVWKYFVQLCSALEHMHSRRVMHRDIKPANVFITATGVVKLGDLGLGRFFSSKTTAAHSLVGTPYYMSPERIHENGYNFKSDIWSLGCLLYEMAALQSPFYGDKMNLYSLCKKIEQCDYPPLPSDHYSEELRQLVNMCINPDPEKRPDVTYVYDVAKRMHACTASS
Chain of NIM1 (Q8IY84 whole entry): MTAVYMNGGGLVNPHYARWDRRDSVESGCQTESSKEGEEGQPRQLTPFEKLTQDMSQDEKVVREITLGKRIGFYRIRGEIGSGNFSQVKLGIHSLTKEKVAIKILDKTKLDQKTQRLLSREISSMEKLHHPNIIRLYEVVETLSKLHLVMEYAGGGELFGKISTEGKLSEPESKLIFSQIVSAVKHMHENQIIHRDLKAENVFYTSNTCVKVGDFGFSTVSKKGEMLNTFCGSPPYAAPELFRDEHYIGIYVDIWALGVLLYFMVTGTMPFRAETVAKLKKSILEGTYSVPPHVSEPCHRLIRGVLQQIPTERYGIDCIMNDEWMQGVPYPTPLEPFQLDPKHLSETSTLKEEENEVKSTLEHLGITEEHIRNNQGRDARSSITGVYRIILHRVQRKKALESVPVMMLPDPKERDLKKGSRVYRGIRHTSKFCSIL

Q: How did the remaining binding at 1 µM (ASK1) turn out when `CNc1c(-c2cnn([C@H]3CCN(C(C)=O)C[C@@H]3F)c2)cnc2[nH]cc(Cl)c12` [Compound 77, 1-((3S,4S)-4-(4-(3-chloro-4-(methylamino)-1H-pyrrolo[2,3-b]pyridin-5-yl)-1H-pyrazol-1-yl)-3-fluoropiperidin-1-yl)ethan-1-one] was run?
A: 4.3%

Q: And the remaining binding at 1 µM (NEK3)?
A: 68%

Q: And the remaining binding at 1 µM (WNK2)?
A: 92%

Q: What about the remaining binding at 1 µM (NEK7) of the same molecule?
A: 100%

Q: And the remaining binding at 1 µM (NIM1)?
A: 69%

Q: What about the remaining binding at 1 µM [1] of the same molecule?
A: 8.2%

Q: And the remaining binding at 1 µM (PHKG2)?
A: 52%

Q: And the remaining binding at 1 µM (PKN2)?
A: 51%

Q: `O=C(c1ccc(-c2cnc3[nH]cc(Cl)c3c2NC2CCCC2)cc1)N1CCC(N2CCOCC2)CC1` [Compound 101, (4-(3-chloro-4-(cyclopentylamino)-1H-pyrrolo[2,3-b]pyridin-5-yl)phenyl)(4-morpholinopiperidin-1-yl)methanone] was tested. Which remaining binding at 1 µM (ASK1) did it give?
A: 94%

Q: What about the remaining binding at 1 µM (NEK3) of the same molecule?
A: 95%

Q: And the remaining binding at 1 µM (WNK2)?
A: 100%

Q: What about the remaining binding at 1 µM (NEK7) of the same molecule?
A: 95%

Q: And the remaining binding at 1 µM (NIM1)?
A: 99%

Q: And the remaining binding at 1 µM [1]?
A: 62%

Q: And the remaining binding at 1 µM (PHKG2)?
A: 100%

Q: And the remaining binding at 1 µM (PKN2)?
A: 75%

Q: With `CNc1c(-c2ccc(C(=O)N3CCC(N4CCOCC4)CC3)cc2)cnc2[nH]cc(Cl)c12` [Compound 96, (4-(3-chloro-4-(methylamino)-1H-pyrrolo[2,3-b]pyridin-5-yl)phenyl)(4-morpholinopiperidin-1-yl)methanone] as the molecule, how does the remaining binding at 1 µM (ASK1) read?
A: 5.9%

Q: And the remaining binding at 1 µM (NEK3)?
A: 82%

Q: And the remaining binding at 1 µM (WNK2)?
A: 100%

Q: What about the remaining binding at 1 µM (NEK7) of the same molecule?
A: 100%

Q: And the remaining binding at 1 µM (NIM1)?
A: 50%

Q: What about the remaining binding at 1 µM [1] of the same molecule?
A: 7.8%

Q: What about the remaining binding at 1 µM (PHKG2) of the same molecule?
A: 19%

Q: What about the remaining binding at 1 µM (PKN2) of the same molecule?
A: 87%
